“And” between values parts separate entries of the source, which are not always exact repeats. Equal values may be shown once. Where a name gives a salt, the structure may show the parent alone. Read-outs that look alike come from different tables or passages of the source.

For one test, the target named is T1, β-secretase (BACE) (Homo sapiens, UniProt P56817).
T1 construct: purchased Panvera
The test can be described thus: BACE FS1 Assay (% Inhibition and Ki). Format: biochemical. Conditions: FS1 substrate; for inhibition at 0.3 µM / % Inhibition (FS) @ 0.3 μM: 0.3 μM test compound; for inhibition at 0.3 µM: read-out: % Inhibition (FS) @ 0.3 μM; for inhibition at 1 µM: read-out: % Inhibition (FS) @ 1 μM; for inhibition at 3 µM: read-out: % Inhibition (FS) @ 3 μM. The protocol: BACE FS1 Assay (% Inhibition and Ki)
The following reagents were used in this assay: sodium acetate, PEG8000 (Sigma), DMSO, HEPES, FS1 substrate [R(AedensE)[…]-(DabcylK)R], β-secretase (BACE) (Panvera), and 96-well plate (HE microplate, Molecular Devices).
The following assay buffers were prepared and used in this assay: (1) enzyme assay buffer (0.05 M sodium acetate, pH5, 0.1% PEG8000 (w/v)), (2) substrate assay buffer (0.05 M sodium acetate, pH5), and (3) compound vehicle (30% DMSO in 50 mM HEPES, pH 7.4).
The FS1-substrate stock solution was prepared in DMSO as a 10 mg/mL solution. The FS1-substrate working solution was prepared by diluting the 10 mg/mL stock solution with substrate assay buffer to a final concentration of 300 μg/mL. The β-secretase (BACE) working solution was prepared by diluting a 0.83 mg/mL BACE stock solution with enzyme assay buffer to a final concentration of 4 μg/mL.
Test compounds were dissolved in DMSO to 10 mM. Compounds were further diluted in vehicle to various concentrations in the range of 405 μM to 4.05 μM (13.5× final compound concentration in screening plate).
The screening procedure for this assay was as follows: 15 μL of BACE working solution was pipetted into each well of a 96-well plate. To each well was then pipetted 2 μL of test compound at the selected concentration. Test compound and BACE were then mixed with a pipettor and incubated for 20 min at room temperature. To each well was then added 10 μL of the FS1 substrate working solution. The plates were then incubated for 1 hour at room temperature. The fluorescence for each well was then measured on an LJL analyst (Ex 360 nm/Em 530 nm).
The procedure for the blank was as follows. 15 μL of assay buffer was pipetted into each well to be used as a blank control. To each well was then added 2 μL of vehicle and […] of FS1-substrate working solution. The plates were then incubated for 1 hour at room temperature. The fluorescence was measured on an LJL analyst (Ex 360 nm/Em 530 nm).
The procedure for the positive control was as follows: 15 μL of BACE working solution was pipetted into each well to be used as a positive control. To each well was then pipetted 2 μL of vehicle. Vehicle and BACE were then mixed with a pipettor and incubated for 20 min at room temperature. To each well was then added 10 μL of the FS1 substrate working solution. The plates were then incubated for 1 hour at room temperature. The fluorescence (F1) was then measured on an LJL analyst (Ex 360 nm/Em 530 nm).
For test compounds, % inhibition was determined at each concentration as follows:
% Inhibition values of less than 30% were indistinguishable from control are listed as ≦30% in Table 18, below.
For test compounds, measured at multiple concentrations, the measured T0 and T60 values were used to calculate an IC50 value using Graphpad Software (or PIR). Ki inhibition was determined as follows: For each compound concentration and positive control, rate of cleavage of substrate (Vi, where i=compound concentration in μM) was determined as Δ Fluorescence/Δ time (min). Cleavage rates (Vi) were plotted as a function of inhibitor concentration in μM [I]. […]

A further test concerns the target human BACE-1 (Homo sapiens, UniProt P56817). The test can be described thus: CEREP BACE Inhibition Assay. Type of test: biochemical. Conditions: for inhibition at 1 µM: read-out: % Inhibition @ 1.0 μM. The method in brief:
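Recombinant human BACE-1 (0.25 μg) was assayed in 0.09 M sodium acetate pH 4.5, with activity followed fluorimetrically as formation of Mca-S-E-V-N-L[…] from peptide substrate. Compound autofluorescence was checked at the detection wavelengths. Basal signal was taken from wells without substrate.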

The mark [1] stands for this setting: percent inhibition of the control activity, recombinant enzyme.
Setting [2] is: recombinant enzyme, read-out: IC50.
The mark [3] stands for this setting: 1.0 μM, percent inhibition of the control activity, recombinant enzyme.

T1 sequence (P56817 46-501): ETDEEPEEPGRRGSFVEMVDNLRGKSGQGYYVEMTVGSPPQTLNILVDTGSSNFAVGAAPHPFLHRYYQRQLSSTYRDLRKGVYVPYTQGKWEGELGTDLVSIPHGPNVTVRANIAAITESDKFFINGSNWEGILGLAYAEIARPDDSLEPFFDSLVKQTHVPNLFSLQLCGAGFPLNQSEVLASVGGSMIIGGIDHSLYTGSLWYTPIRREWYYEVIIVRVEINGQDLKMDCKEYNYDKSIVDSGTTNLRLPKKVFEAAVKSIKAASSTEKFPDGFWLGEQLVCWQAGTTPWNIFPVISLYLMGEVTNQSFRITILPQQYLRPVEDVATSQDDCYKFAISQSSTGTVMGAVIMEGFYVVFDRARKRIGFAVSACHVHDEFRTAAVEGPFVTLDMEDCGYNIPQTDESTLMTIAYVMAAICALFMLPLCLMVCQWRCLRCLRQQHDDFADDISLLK
Chain of human BACE-1 (P56817 46-501): as above

Take `CC(C)[C@H](CCC(=O)N(C)CCC(=O)O)N1Cc2cc(Oc3ccccc3)ncc2N=C1N` [Compound 16]: at β-secretase (BACE), the inhibition at 0.3 µM worked out at 12% and the Ki is 1090 nM. Also, at β-secretase (BACE) (1 μM test compound), the inhibition at 1 µM is 51%. The inhibition at 3 µM on β-secretase (BACE) (3 μM test compound) worked out at 80%.
The corresponding values for `CN(C(=O)CC[C@@H](C1CCCCC1)N1Cc2cc(-c3ccccc3F)ncc2N=C1N)C1CCCCC1` [Compound 4] are 113%, 35 nM, 127% and 132%.
On to `CN(CCCCC(=O)O)C(=O)CC[C@@H](C1CCCCC1)N1Cc2cc(Oc3ccccc3)ncc2N=C1N` [Compound 44], for which, at β-secretase (BACE), the inhibition at 0.3 µM is 61% and the inhibitory constant (Ki) worked out at 148 nM. On β-secretase (BACE) (1 μM test compound), the inhibition at 1 µM turned out to be 88%. On β-secretase (BACE) (3 μM test compound), the inhibition at 3 µM is 105%.
Take `CC(C)[C@H](CO)NC(=O)CC[C@@H](C(C)C)N1Cc2cc(Oc3ccccc3)ncc2N=C1N` [Compound 29]: on β-secretase (BACE), the “% Inhibition (FS) @ 0.3 μM” value turned out to be 93% and the inhibition constant (Ki) is 31 nM. Moreover, the inhibition at 1 µM on β-secretase (BACE) (1 μM test compound) worked out at 115%. For the same molecule, at β-secretase (BACE) (3 μM test compound), the inhibition at 3 µM stood at 119%.
In the case of `CCOC(=O)CCN(C)C(=O)CC[C@@H](C(C)C)N1Cc2cc(Oc3ccccc3)ncc2N=C1N` [Compound 15], on β-secretase (BACE), the inhibition at 0.3 µM is 68% and the affinity, expressed as Ki, was 129 nM. For the same molecule, the inhibition at 1 µM on β-secretase (BACE) (1 μM test compound) came out at 94%. The inhibition at 3 µM at β-secretase (BACE) (3 μM test compound) was determined as 110%.
On the same counts, the results for `NC1=Nc2cnc(Oc3ccccc3)cc2CN1[C@@H](CCC(=O)N(CCOCc1ccccc1)[C@H]1CC[C@@H](C(=O)O)CC1)C1CCOCC1` [Compound 39, 4-[[4-(2-Amino-6-phenoxy-4H-pyrido[3,4-d]pyrimidin-3-yl)-4-(S)-(tetrahydro-pyran-4-yl)-butyryl]-(2-benzyloxy-ethyl)-amino]-cyclohexanecarboxylic acid] are 112%, 13 nM, 110% and 115%.
As for `COC(=O)[C@@H](CO)NC(=O)CC[C@@H](C(C)C)N1Cc2cc(Oc3ccccc3)ncc2N=C1N` [Compound 28], on β-secretase (BACE), the inhibition at 0.3 µM came to 116% and affinity was put at a Ki of 17 nM. Besides, on β-secretase (BACE) (1 μM test compound), the inhibition at 1 µM turned out to be 124%. Further, the inhibition at 3 µM at β-secretase (BACE) (3 μM test compound) was 128%.
As for `CC(C)C(CCC(=O)N(C)C1CCC(C(=O)O)CC1)N1Cc2cc(Oc3ccccc3)ncc2N=C1N` (stereo not drawn) [Compound 8], at β-secretase (BACE), the “% Inhibition (FS) @ 0.3 μM” value is given as 121%; the inhibition at 0.3 µM was determined as 106%; the inhibition constant (Ki) is 27 nM and 16 nM. The “% Inhibition (FS) @ 1 μM” value at β-secretase (BACE) (1 μM test compound, 1 µM) was 115%. In addition, the inhibition at 1 µM at β-secretase (BACE) (1 μM test compound) is 129%. At β-secretase (BACE) (3 μM test compound, 3 µM), the “% Inhibition (FS) @ 3 μM” value came out at 130%. At β-secretase (BACE) (3 μM test compound), the inhibition at 3 µM was 138%.
For the molecule `CN(C(=O)CCC(C1CCOCC1)N1Cc2cc(Oc3ccccc3)ncc2N=C1N)C1CCC(C(=O)O)CC1` (stereo not drawn) [Compound 26], on β-secretase (BACE), the inhibition at 0.3 µM amounted to 110% and the inhibition constant Ki stood at 22 nM. Further, the inhibition at 1 µM at β-secretase (BACE) (1 μM test compound) stood at 124%. Further, the inhibition at 3 µM on β-secretase (BACE) (3 μM test compound) is 124%.
As to `CC(C)(C)OC(=O)NCCN1Cc2cc(Oc3ccccc3)ncc2N=C1N` [Compound 2], at β-secretase (BACE), the inhibition at 0.3 µM is 70% and affinity was put at a Ki of 91 nM. Moreover, the inhibition at 1 µM on β-secretase (BACE) (1 μM test compound) is 102%. Moreover, the inhibition at 3 µM on β-secretase (BACE) (3 μM test compound) is 124%.
As for `NC1=Nc2cnc(Oc3ccccc3)cc2CN1[C@@H](CCC(=O)N(Cc1nnn[nH]1)C1CCCCC1)C1CCCCC1` [Compound 77, 4-(2-Amino-6-phenoxy-4H-pyrido[3,4-d]pyrimidin-3-yl)-4-(S)—N-dicyclohexyl-N-(1H-tetrazol-5-ylmethyl)-butyramide], the inhibition at 0.3 µM at human BACE-1 (setting [1]) came out at 78%. For the same molecule, at human BACE-1 (setting [2]), the half-maximal inhibitory concentration (IC50) was determined as 0.33 µM.
`CCOCCCNC(=O)CC[C@@H](C1CCCCC1)N1Cc2cc(Oc3ccccc3)ncc2N=C1N` [Compound 173]: at human BACE-1 (setting [3]), the inhibition at 1 µM worked out at 92%. Further, the IC50 on human BACE-1 (setting [2]) was found to be 0.13 µM.
On the same counts, the results for `CC(C)(C)c1cn(C[C@@H](C2CCCCC2)N2Cc3cc(Oc4ccccc4)ncc3N=C2N)nn1` [Compound 152, 3-[2-(4-tert-Butyl-[1,2,3]triazol-1-yl)-1-(R)-cyclohexyl-ethyl]-6-phenoxy-3,4-dihydro-pyrido[3,4-d]pyrimidin-2-ylamine] are 99% and 0.088 µM.
The corresponding values for `CC(C)(C)CNCCC[C@@H](C1CCCCC1)N1Cc2cc(Oc3ccccc3)ncc2N=C1N` [Compound 161] are 94% and 0.2 µM.
Regarding `CC(C)C(COCC1CC(C2CCCCC2)=NO1)N1Cc2cc(Oc3ccccc3)ncc2N=C1N` (stereo not drawn) [Compound 235], the 50% inhibitory concentration (IC50) at human BACE-1 (IC50 (μM), recombinant enzyme) worked out at 0.61 µM. Also, the inhibition at 1 µM on human BACE-1 came to 59%.
Take `CC(C)[C@H](C(=O)N(C)CCc1ccccc1)N1Cc2cc(Oc3ccccc3)ncc2N=C1N` [Compound 221, 2-(2-Amino-6-phenoxy-4H-pyrido[3,4-d]pyrimidin-3-yl)-3,N-dimethyl-N-phenethyl-butyramide hydrochloride salt (R enantiomer)]: the inhibition at 1 µM on human BACE-1 (setting [3]) came to 52%. At human BACE-1 (setting [2]), the concentration for half-maximal inhibition (IC50) stood at 0.98 µM.
On the same counts, the results for `CC(C)(C)N(CCO)C(=O)CC[C@@H](C1CCCCC1)N1Cc2cc(Oc3ccccc3)ncc2N=C1N` [Compound 115] are 80% and 0.23 µM.
Take `NC1=Nc2cnc(Oc3ccccc3)cc2CN1[C@@H](CCC(=O)N(Cc1ccncc1)C1CCCCC1)C1CCCCC1` [Compound 79]: the inhibition at 0.3 µM at human BACE-1 (setting [1]) worked out at 88%. For the same molecule, the IC50 on human BACE-1 (setting [2]) was 0.15 µM.
The corresponding values for `COC(=O)[C@H](COC(C)(C)C)N(C)C(=O)CC[C@@H](C1CCCCC1)N1Cc2cc(Oc3ccccc3)ncc2N=C1N` [Compound 65] are 91% and 0.11 µM.
Turning to `CC(C)[C@H](CCC(=O)N[C@H](COC(C)(C)C)C(=O)O)N1Cc2cc(Oc3ccccc3)ncc2N=C1N` [Compound 88], the inhibition at 0.3 µM on human BACE-1 (setting [1]) was determined as 98%. The IC50 on human BACE-1 (setting [2]) was determined as 0.1 µM.
In the case of `CN(C(=O)C[C@@H](C1CCCCC1)N1Cc2cc(Oc3ccccc3)ncc2N=C1N)C1CCCCC1` [Compound 205], the inhibition at 1 µM at human BACE-1 (setting [3]) stood at 81%. Further, the IC50 at human BACE-1 (setting [2]) came out at 0.29 µM.
In the case of `COC(=O)[C@@H](COCc1ccccc1)NC(=O)CC[C@@H](C(C)C)N1Cc2cc(Oc3ccccc3)ncc2N=C1N` [Compound 53], at human BACE-1 (setting [1]), the inhibition at 0.3 µM stood at 95%. The half-inhibitory concentration (IC50) at human BACE-1 (setting [2]) amounted to 0.14 µM.
Take `CC(C)CN(CCN1CCOCC1)C(=O)CC[C@@H](C(C)C)N1Cc2cc(Oc3ccccc3)ncc2N=C1N` [Compound 190]: at human BACE-1 (setting [3]), the inhibition at 1 µM came to 86%. The IC50 at human BACE-1 (setting [2]) is 0.19 µM.
The corresponding values for `CC(C)(C)OCCN(Cc1cccs1)C(=O)CC[C@@H](C1CCCCC1)N1Cc2cc(Oc3ccccc3)ncc2N=C1N` [Compound 154] are 102% and 0.11 µM.
Consider `CC(C)(C)CCN(CCNS(N)(=O)=O)C(=O)CC[C@@H](C1CCCCC1)N1Cc2cc(Oc3ccccc3)ncc2N=C1N` [Compound 147, 4-(2-Amino-6-phenoxy-4H-pyrido[3,4-d]pyrimidin-3-yl)-4-(S)-cyclohexyl-N-(3,3-dimethyl-butyl)-N-(2-sulfamido-ethyl)-butyramide], for which the inhibition at 1 µM on human BACE-1 (setting [3]) worked out at 100%. Moreover, the IC50 at human BACE-1 (setting [2]) was 0.18 µM.
In the case of `COC(=O)[C@@H](COC(C)(C)C)NC(=O)CC[C@@H](C(C)C)N1Cc2cc(Oc3ccccc3)ncc2N=C1N` [Compound 87], the inhibition at 0.3 µM at human BACE-1 (setting [1]) amounted to 84%. At human BACE-1 (setting [2]), the 50% inhibitory concentration (IC50) was found to be 0.096 µM.

These data come from patent US7531545B2, “2-amino-3,4-dihydro-pyrido[3,4-d]pyrimidine derivatives useful as inhibitors of β-secretase (BACE)” (Janssen Pharmaceutica, N.V., priority 2005, dated 2009).
